In brackets after ≈: the same amount, converted by molar mass. Read-outs that look alike come from different tables or passages of the source.
Key:
MDBK = assay: Real-time cell viability, RealTime-Glo MT; assay type: cell-based, bovine; conditions: 2 or 8 μg/ml, up to 20 h post-treatment
Description: (§1) In order to ensure minimal off target mammalian cell cytotoxicity, we assayed NCL812, NCL195 and NCL219 for in vitro cytotoxicity using a panel of adherent mammalian cell lines: Caco-2 (human colorectal adenocarcinoma cell line), HEL 299 (non-cancerous human lung fibroblast cell line), Hep G2 (human hepatocellular carcinoma cell line), MDBK (normal bovine kidney cell line) and MCF7 (human mammary gland adenocarcinoma cell line). Cell lines were maintained in Dulbecco’s Modified Eagle’s Medium (DMEM; […] After 24 h incubation, media was removed, washed once with medium without antibiotics and fresh medium supplemented with 10% (vol/vol) FBS was added. […] Following exposure for 24 h, WST-1 reagent was added to each well at a final concentration of 10%. […] The IC50 value for each compound against each cell line was determined via non-linear regression (three parameters) using GraphPad Prism v6 software. The robustness of assays was confirmed with selected cell lines (Hep G2 and MDBK) seeded onto a 96–well Microwell Nunclon Delta Surface plate (Thermo Scientific Nunc; Cat No: 136101) at 5 × 10^4 cells per well.

[1] = system: panel of mammalian cell lines (Caco-2, HEL 299, Hep G2, MDBK, MCF7); assay: In vitro cytotoxicity, WST-1, all cell lines tested; assay type: cell-based; conditions: lower bound over all the cell lines tested
Description: as §1

MCF7 = assay: In vitro cytotoxicity, WST-1; assay type: cell-based; conditions: Homo sapiens, 24 h exposure, read-out: IC50 values ± SEM
Description: as §1

Caco-2 = assay: In vitro cytotoxicity, WST-1; assay type: cell-based; conditions: Homo sapiens, 24 h exposure, read-out: IC50 values ± SEM
Description: as §1

[2] = system: Enterococcus faecalis ATCC 29212; assay: MIC, broth micro-dilution (CLSI), control strain; assay type: cell-based
Description: MICs for NCL812 and its analogs (serial two-fold dilutions commencing at 128 μg/ml) were determined (in duplicate) in round bottom 96-well microtitre trays (Sarstedt 82.1582.001), using the broth micro-dilution method recommended by the Clinical and Laboratory Standards Institute (CLSI). […] MIC50, MIC90 and MIC range for NCL812, NCL195 and NCL219 were calculated against each S. pneumoniae, S. aureus or VRE isolate. To assess the potential activity of NCL195 against Gram-negative bacteria, MICs against Acinetobacter spp, E. coli, K. pneumoniae, P. aeruginosa, Proteus spp and Neisseria meningitidis were performed in the presence or absence of 0.08 mM-20 mM EDTA in a standard checkerboard assay.

S. aureus Xen29 = assay: Minimum bactericidal concentration (MBC); assay type: cell-based; conditions: Staphylococcus aureus, 99.9% colony count reduction
Description: The tray was covered with Breathe-Easy sealing membrane (Z380059, Sigma-Aldrich) and incubated for 16 h overnight at 35°C in an EnSpire Multimode Plate Reader 2300 (PerkinElmer), with data collected every 20 min and 2 sec agitation at 60 rpm between data (A600 nm) acquisitions. The experiment was repeated using the luminescent D39LUX strain on a Cytation 5 Cell Imaging Multi-Mode Reader (BioTek) using IsoplateTM-96 F tray PerkinElmer, 6005020). Kill kinetic assays on S. aureus Xen29 was carried out essentially as described for MIC determination on Cytation 5 Cell Imaging Multi-Mode Reader.
In order to determine the MBC of each compound against S. pneumoniae D39 or S. aureus Xen29, 10 μl aliquots from each duplicate well from the MIC assays (starting from the MIC for each compound) was inoculated onto a HBA plate and incubated at 37°C (+ 5% CO2 for S. pneumoniae D39). Plates were examined at 24 and 48 h and the MBC was recorded as the lowest concentration of each test compound at which a 99.9% colony count reduction was observed on the plate.

S. pneumoniae D39 = assay: Minimum bactericidal concentration (MBC); assay type: cell-based; conditions: Streptococcus pneumoniae, 99.9% colony count reduction, read-out: MBC
S. aureus = assay: MIC, broth micro-dilution (CLSI); assay type: cell-based, Staphylococcus aureus; conditions: for MIC / MIC50 / MIC90: Staphylococcus aureus; for MIC50 / MIC90: S2 Table isolates

C/C(=N\NC(=N)N/N=C(\C)c1ccc(C(C)(C)C)cc1)c1ccc(C(C)(C)C)cc1 [NCL219, (E)-N'-((E)-1-(4-(tert-butyl)phenyl)ethylidene)-2-(1-(4-(tert-butyl)phenyl)ethylidene)hydrazine-1-carboximidhydrazide]
Effect on cell viability (real-time) (MDBK): had a demonstrable effect on viability at 2 μg/ml
IC50 [1]: > 7 µg/mL
IC50 (MCF7): > 128 µg/mL
IC50 (Caco-2): 7.5 ± 0.1 µg/mL (≈ 18.5 µM)
MIC ([2]; ATCC29212, 10% FBS): 8 µg/mL
MIC ([2]; ATCC29212, absence of FBS): 2 µg/mL
MBC (S. aureus Xen29): 16 µg/mL (≈ 39.4 µM)
MBC (S. pneumoniae D39): 4 µg/mL (≈ 9.86 µM)
Fold increase of MIC range in the presence of 10% FBS (S. aureus; 10% FBS versus no FBS): remained essentially the same
MIC (S. aureus; ATCC 12600 / MSSA, ATCC12600 [Xen29] (MSSA), 10% FBS): 4 µg/mL (≈ 9.86 µM)
MIC (S. aureus; ATCC 12600 / MSSA, ATCC12600 [Xen29] (MSSA), absence of FBS): 32 µg/mL (≈ 78.9 µM)
MIC (S. aureus; ATCC 29213 / MSSA, ATCC29213 MSSA (ST5), 10% FBS, read-out: MIC): 8 µg/mL (≈ 19.7 µM)
MIC (S. aureus; ATCC 29213 / MSSA, ATCC29213 MSSA (ST5), absence of FBS, read-out: MIC): 16 µg/mL (≈ 39.4 µM)
MIC (S. aureus; ATCC 49775 / MSSA, ATCC 49775 (MSSA), 10% FBS, read-out: MIC): 4 µg/mL (≈ 9.86 µM)
MIC (S. aureus; ATCC 49775 / MSSA, ATCC 49775 (MSSA), absence of FBS, read-out: MIC): 32 µg/mL (≈ 78.9 µM)
MIC (S. aureus; IRISH 1 – HA-EMRSA (ST8), 10% FBS, read-out: MIC): > 64 µg/mL
MIC (S. aureus; IRISH 1 – HA-EMRSA (ST8), absence of FBS, read-out: MIC): > 64 µg/mL
MIC (S. aureus; IRISH 2 – HA-EMRSA (ST8), 10% FBS, read-out: MIC): 8 µg/mL (≈ 19.7 µM)
MIC (S. aureus; IRISH 2 – HA-EMRSA (ST8), absence of FBS, read-out: MIC): 32 µg/mL (≈ 78.9 µM)
MIC (S. aureus; MRSA / USA300, USA 300 - MRSA (ST8), 10% FBS, read-out: MIC): 4 µg/mL (≈ 9.86 µM)
MIC (S. aureus; MRSA / USA300, USA 300 - MRSA (ST8), absence of FBS, read-out: MIC): > 64 µg/mL
MIC (S. aureus; MRSA, AUS2-MRSA (ST239), 10% FBS, read-out: MIC): 8 µg/mL (≈ 19.7 µM)
MIC (S. aureus; MRSA, AUS2-MRSA (ST239), absence of FBS, read-out: MIC): > 64 µg/mL
MIC (S. aureus; MRSA, AUS3-MRSA (ST239), 10% FBS, read-out: MIC): 8 µg/mL (≈ 19.7 µM)
MIC (S. aureus; MRSA, AUS3-MRSA (ST239), absence of FBS, read-out: MIC): 64 µg/mL (≈ 158 µM)
MIC (S. aureus; MRSA, BENGAL BAY PVL+ – CA-MRSA (ST772), absence of FBS): 16 µg/mL (≈ 39.4 µM)
MIC (S. aureus; MRSA, Classic–HA-MRSA (ST250), 10% FBS, read-out: MIC): 32 µg/mL (≈ 78.9 µM)
MIC (S. aureus; MRSA, Classic–HA-MRSA (ST250), absence of FBS, read-out: MIC): 32 µg/mL (≈ 78.9 µM)
MIC (S. aureus; MRSA, NY JAPAN – HA MRSA (ST5), 10% FBS, read-out: MIC): 4 µg/mL (≈ 9.86 µM)
MIC (S. aureus; MRSA, NY JAPAN – HA MRSA (ST5), absence of FBS, read-out: MIC): > 64 µg/mL
MIC (S. aureus; MRSA, ST398–CA-MRSA-V (ST398), 10% FBS, read-out: MIC): > 64 µg/mL
MIC (S. aureus; MRSA, ST398–CA-MRSA-V (ST398), absence of FBS, read-out: MIC): > 64 µg/mL
MIC (S. aureus; MRSA, WA2–CA-MRSA (ST78), absence of FBS, read-out: MIC): > 64 µg/mL
MIC (S. aureus; MRSA, WA3–CA-MRSA (ST5), absence of FBS, read-out: MIC): > 64 µg/mL
MIC (S. aureus; MRSA, WA84–CA-MRSA (ST45), 10% FBS, read-out: MIC): 8 µg/mL (≈ 19.7 µM)
MIC (S. aureus; MRSA, WA84–CA-MRSA (ST45), absence of FBS, read-out: MIC): > 64 µg/mL
MIC50 (S. aureus; 10% FBS): 8 µg/mL (≈ 19.7 µM)
MIC90 (S. aureus; 10% FBS): > 64 µg/mL
MIC50 (S. aureus; absence of FBS): 64 µg/mL (≈ 158 µM)
MIC90 (S. aureus; absence of FBS): > 64 µg/mL
MIC (S. aureus; TAIWAN PVL+ – CA-cMRSA (ST59), 10% FBS, read-out: MIC): 32 µg/mL (≈ 78.9 µM)
MIC (S. aureus; TAIWAN PVL+ – CA-cMRSA (ST59), absence of FBS, read-out: MIC): > 64 µg/mL
MIC (S. aureus; UK 15 PVL+ – HA-EMRSA (ST22), 10% FBS, read-out: MIC): 4 µg/mL (≈ 9.86 µM)
MIC (S. aureus; UK 15 PVL+ – HA-EMRSA (ST22), absence of FBS, read-out: MIC): 32 µg/mL (≈ 78.9 µM)
MIC (S. aureus; UK 15 – HA-EMRSA (ST22), 10% FBS, read-out: MIC): 8 µg/mL (≈ 19.7 µM)
MIC (S. aureus; UK 15 – HA-EMRSA (ST22), absence of FBS, read-out: MIC): 64 µg/mL (≈ 158 µM)
MIC (S. aureus; UK 16 – HA- EMRSA (ST36), 10% FBS, read-out: MIC): 4 µg/mL (≈ 9.86 µM)
MIC (S. aureus; UK 16 – HA- EMRSA (ST36), absence of FBS, read-out: MIC): 32 µg/mL (≈ 78.9 µM)
MIC (S. aureus; UK 17 – HA-EMRSA (ST247), 10% FBS, read-out: MIC): 16 µg/mL (≈ 39.4 µM)
MIC (S. aureus; UK 17 – HA-EMRSA (ST247), absence of FBS, read-out: MIC): 64 µg/mL (≈ 158 µM)

Reference: publication PMC5584945, “Evaluation of robenidine analog NCL195 as a novel broad-spectrum antibacterial agent” (PLoS ONE, 2017)
